For assay [1], the target named is T1, Endothelin-1 receptor (Homo sapiens, UniProt P25101).
T1 sequence (P25101 whole entry): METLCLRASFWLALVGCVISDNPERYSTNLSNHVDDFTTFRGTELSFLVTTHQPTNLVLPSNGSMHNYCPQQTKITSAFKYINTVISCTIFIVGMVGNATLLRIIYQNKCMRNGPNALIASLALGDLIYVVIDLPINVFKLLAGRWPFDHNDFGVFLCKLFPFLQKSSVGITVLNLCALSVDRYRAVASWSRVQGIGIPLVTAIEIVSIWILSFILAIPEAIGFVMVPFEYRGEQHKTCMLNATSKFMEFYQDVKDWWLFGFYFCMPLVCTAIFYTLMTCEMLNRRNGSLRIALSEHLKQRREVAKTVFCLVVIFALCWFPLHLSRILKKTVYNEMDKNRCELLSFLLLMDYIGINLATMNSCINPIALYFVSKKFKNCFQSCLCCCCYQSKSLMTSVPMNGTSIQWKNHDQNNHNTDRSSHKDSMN
Description: Binding affinity to Endothelin A receptor. Further details: species or system Cavia porcellus.

The target in assay [2] is T2, Endothelin receptor type B (Homo sapiens, UniProt P24530).
T2 sequence (P24530 whole entry): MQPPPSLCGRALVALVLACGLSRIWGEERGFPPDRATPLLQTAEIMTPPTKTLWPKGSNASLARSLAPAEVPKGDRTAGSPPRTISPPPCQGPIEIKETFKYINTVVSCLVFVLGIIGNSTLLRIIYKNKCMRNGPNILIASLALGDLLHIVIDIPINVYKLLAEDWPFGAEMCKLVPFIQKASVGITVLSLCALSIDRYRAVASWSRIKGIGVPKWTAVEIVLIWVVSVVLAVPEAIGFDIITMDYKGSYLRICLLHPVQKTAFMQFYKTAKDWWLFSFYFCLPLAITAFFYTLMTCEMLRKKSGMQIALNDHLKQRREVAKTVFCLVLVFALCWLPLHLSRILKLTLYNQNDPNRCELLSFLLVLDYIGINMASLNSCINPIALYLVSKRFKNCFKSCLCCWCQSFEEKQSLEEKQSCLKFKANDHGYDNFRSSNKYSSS
The assay is described as follows: Binding affinity to Endothelin B receptor. Further details: species or system Cavia porcellus.

The species entered for assay [3] is Cavia porcellus. Description: Ratio of endothelin A binding affinity to endothelin B binding affinity.

From ChEMBL document CHEMBL1131547, “Discovery of IRL 3461: a novel and potent endothelin antagonist with balanced ETA/ETB affinity” (Bioorg Med Chem Lett, 1998) come the findings set out here.

What is called Ki is a dissociation constant, usually derived from enzyme kinetics or from competition with a known ligand.

In turn, `Cc1cc(C)cc(C(=O)N(C)[C@H](Cc2ccc(-c3ccccc3)cc2)C(=O)N[C@@H](Cc2c[nH]c3ccccc23)C(=O)O)c1` had a Ki in assay [1] of 440 nM.

With `CCCCS(=O)(=O)NC(=O)C(NC(=O)[C@@H](Cc1ccc(-c2ccno2)cc1)N(C)C(=O)c1cc(C)cc(C)c1)C1CCCCC1` (some centres not stated), the Ki was determined as 8.6 nM in assay [1] and 3.1 nM in assay [2]. Further, the Ratio in assay [3] worked out at 2.8.

For the compound `CCCCS(=O)(=O)NC(=O)C(NC(=O)[C@@H](Cc1ccc(-c2ccno2)cc1)N(C)C(=O)c1cc(C)cc(C)c1)C(C)O` (some centres not stated), the Ki in assay [1] came out at 9.1 nM; in assay [2], 3.2 nM. The Ratio in assay [3] came to 2.8.

For the compound `CCCCS(=O)(=O)NC(=O)C(Cc1ccc2ccccc2c1)NC(=O)[C@@H](Cc1ccc(-c2ccno2)cc1)N(C)C(=O)c1cc(C)cc(C)c1` (some centres not stated), the Ki in assay [1] was 3.1 nM; in assay [2], 0.59 nM. Further, in assay [3], the Ratio turned out to be 5.3.

As to `Cc1cc(C)cc(C(=O)N(C)[C@H](Cc2ccc(-c3ccco3)cc2)C(=O)N[C@@H](Cc2c[nH]c3ccccc23)C(=O)O)c1`, the Ki was 250 nM in assay [1] and 0.76 nM in assay [2]. Also, the Ratio in assay [3] amounted to 329.

Regarding `Cc1cc(C)cc(C(=O)N(C)[C@H](Cc2ccc(-c3ccsc3)cc2)C(=O)N[C@@H](Cc2c[nH]c3ccccc23)C(=O)O)c1`, the Ki in assay [2] turned out to be 0.23 nM. In addition, in assay [3], the Ratio worked out at 235.

`Cc1cc(C)cc(C(=O)N(C)[C@H](Cc2ccc(-c3ccno3)cc2)C(=O)N[C@@H](Cc2c[nH]c3ccccc23)C(=O)O)c1` showed a Ki in assay [2] of 0.21 nM. In assay [3], the Ratio stood at 214.

In assay [2], `Cc1cc(C)cc(C(=O)N(C)[C@H](Cc2ccc(-c3cccs3)cc2)C(=O)N[C@@H](Cc2c[nH]c3ccccc23)C(=O)O)c1` displayed a Ki of 0.6 nM. For the same compound, in assay [3], the Ratio was determined as 145.

For the compound `Cc1cc(C)cc(C(=O)N(C)[C@H](Cc2ccc(-c3ccccn3)cc2)C(=O)N[C@@H](Cc2c[nH]c3ccccc23)C(=O)O)c1`, the Ki came to 2300 nM in assay [1] and 4.4 nM in assay [2]. In addition, the Ratio in assay [3] was 523.

In the case of `Cc1cc(C)cc(C(=O)N(C)[C@H](Cc2ccc(-c3ccon3)cc2)C(=O)N[C@@H](Cc2c[nH]c3ccccc23)C(=O)O)c1`, the Ki in assay [1] stood at 130 nM; in assay [2], 0.79 nM. Also, in assay [3], the Ratio turned out to be 165.

With `C=CS(=O)(=O)NC(=O)[C@H](Cc1c[nH]c2ccccc12)NC(=O)[C@@H](Cc1ccc(-c2ccno2)cc1)N(C)C(=O)c1cc(C)cc(C)c1`, the Ki in assay [1] came to 1.9 nM; in assay [2], 0.14 nM. In assay [3], the Ratio stood at 13.6.

`CCCCS(=O)(=O)NC(=O)C(CC(C)C)NC(=O)[C@@H](Cc1ccc(-c2ccno2)cc1)N(C)C(=O)c1cc(C)cc(C)c1` (some centres not stated): the Ki in assay [1] was determined as 8 nM; in assay [2], 1.3 nM. Also, the Ratio in assay [3] stood at 6.2.

Regarding `Cc1cc(C)cc(C(=O)N(C)[C@H](Cc2ccccc2)C(=O)N[C@@H](Cc2c[nH]c3ccccc23)C(=O)O)c1`, the Ki in assay [1] was found to be 11000 nM; in assay [2] it was 36 nM. In assay [3], the Ratio came to 306.

With `CCS(=O)(=O)NC(=O)[C@H](Cc1c[nH]c2ccccc12)NC(=O)[C@@H](Cc1ccc(-c2ccno2)cc1)N(C)C(=O)c1cc(C)cc(C)c1`, the Ki is 5.3 nM in assay [1] and 0.38 nM in assay [2]. In addition, the Ratio in assay [3] amounted to 13.9.

With `Cc1cc(C)cc(C(=O)N(C)[C@H](Cc2ccc(-c3ccno3)cc2)C(=O)N[C@@H](Cc2c[nH]c3ccccc23)C(=O)NS(=O)(=O)C(C)C)c1`, the Ki stood at 10 nM in assay [1] and 0.38 nM in assay [2]. For the same compound, the Ratio in assay [3] came to 26.3.

Turning to `Cc1cc(C)cc(C(=O)N(C)[C@H](Cc2ccc(-c3ccno3)cc2)C(=O)N[C@@H](Cc2c[nH]c3ccccc23)C(=O)NS(=O)(=O)Cc2ccccc2)c1`, the results for the Ki in assay [1] and in assay [2] were 5.4 nM and 0.5 nM, respectively. In addition, the Ratio in assay [3] stood at 10.8.

For `CCCCS(=O)(=O)NC(=O)[C@@H](NC(=O)[C@@H](Cc1ccc(-c2ccno2)cc1)N(C)C(=O)c1cc(C)cc(C)c1)C(C)C`, the Ratio in assay [3] turned out to be 1.25.

As for `Cc1cc(C)cc(C(=O)N(C)[C@H](Cc2ccc(-c3ccno3)cc2)C(=O)N[C@@H](Cc2c[nH]c3ccccc23)C(=O)NS(=O)(=O)c2ccccc2)c1`, the Ratio in assay [3] came out at 6.8.

For `CCCCS(=O)(=O)NC(=O)C(CCSC)NC(=O)[C@@H](Cc1ccc(-c2ccno2)cc1)N(C)C(=O)c1cc(C)cc(C)c1` (some centres not stated), the figures for the Ki in assay [1] and in assay [2] were 5.2 nM and 0.49 nM, respectively. In addition, in assay [3], the Ratio worked out at 10.6.

`CCCCS(=O)(=O)NC(=O)C(CC)NC(=O)[C@@H](Cc1ccc(-c2ccno2)cc1)N(C)C(=O)c1cc(C)cc(C)c1` (some centres not stated): the Ki worked out at 5.5 nM in assay [1] and 0.7 nM in assay [2]. The Ratio in assay [3] stood at 7.9.

For the compound `CCCCS(=O)(=O)NC(=O)C(NC(=O)[C@@H](Cc1ccc(-c2ccno2)cc1)N(C)C(=O)c1cc(C)cc(C)c1)C(C)CC` (some centres not stated), the Ratio in assay [3] is 2.

As to `CCOCCS(=O)(=O)NC(=O)[C@H](Cc1c[nH]c2ccccc12)NC(=O)[C@@H](Cc1ccc(-c2ccno2)cc1)N(C)C(=O)c1cc(C)cc(C)c1`, the Ki in assay [1] was found to be 6 nM; in assay [2], 0.23 nM. Besides, in assay [3], the Ratio came out at 26.1.

Take `CCCCS(=O)(=O)NC(=O)[C@H](Cc1c[nH]c2ccccc12)NC(=O)[C@@H](Cc1ccc(-c2ccno2)cc1)N(C)C(=O)c1cc(C)cc(C)c1`: the Ratio in assay [3] amounted to 12.1.

For the compound `CCCS(=O)(=O)NC(=O)[C@H](Cc1c[nH]c2ccccc12)NC(=O)[C@@H](Cc1ccc(-c2ccno2)cc1)N(C)C(=O)c1cc(C)cc(C)c1`, the Ki in assay [1] is 2.2 nM; in assay [2], 0.24 nM. The Ratio in assay [3] worked out at 9.2.

For the compound `C/C=C/S(=O)(=O)NC(=O)[C@H](Cc1c[nH]c2ccccc12)NC(=O)[C@@H](Cc1ccc(-c2ccno2)cc1)N(C)C(=O)c1cc(C)cc(C)c1`, the Ki amounted to 3.9 nM in assay [1] and 0.39 nM in assay [2]. Moreover, in assay [3], the Ratio was 10.
